As usually defined, the IC50 is the midpoint of a concentration-inhibition curve.

Some results are limits rather than exact numbers.

For this test, the system named is NCI-H460. Briefly: Anti-tumor activity against human NCI-H460 cells assessed as cell viability incubated for 48 hrs by CCK-8 assay. The format is functional, cell-based. The conditions noted are these: NCI-H460, 48 h. Background: Tetrazolium dyes change colour on reduction, which living cells bring about.

For `Fc1cccc([Se]c2c(-c3ccccc3)ncc3ccccc23)c1`, the IC50 was more than 100 µM.
`Fc1ccc2c([Se]c3ccccc3)c(-c3ccccc3)ncc2c1`: the IC50 is more than 100 µM.
The value for `FC(F)(F)c1ccc2c([Se]c3ccccc3)c(-c3ccccc3)ncc2c1` was 51.9 µM; that for `COc1cc2cnc(-c3ccccc3)c([Se]c3ccccc3)c2cc1OC` was 42.3 µM; that for `FC(F)(F)c1cccc([Se]c2c(-c3ccccc3)ncc3ccccc23)c1` was 47.2 µM.
As for `COc1ccc([Se]c2c(-c3ccccc3)ncc3cccc(F)c23)cc1`, the IC50 was determined as 53.2 µM.
The value for `Clc1ccc2c([Se]c3ccccc3)c(-c3ccccc3)ncc2c1` was 99.2 µM; that for `COc1ccccc1[Se]c1c(-c2ccccc2)ncc2ccccc12` was 64.2 µM.
The value for `N#Cc1cccc([Se]c2c(-c3ccccc3)ncc3ccccc23)c1` was 68 µM; that for `c1ccc([Se]c2c(-c3ccsc3)ncc3ccccc23)cc1` was more than 100 µM.
The value for `CCCCc1ncc2ccccc2c1[Se]c1ccccc1` was more than 100 µM; that for `Cc1ccccc1[Se]c1c(-c2ccccc2)ncc2ccccc12` was 61.6 µM; that for `FC(F)(F)c1ccc([Se]c2c(-c3ccccc3)ncc3ccccc23)cc1` was 53.6 µM.
Take `COc1ccc([Se]c2c(-c3ccc(Cl)cc3)ncc3ccccc23)cc1`: the IC50 is 77.3 µM.
The value for `Clc1ccccc1[Se]c1c(-c2ccccc2)ncc2ccccc12` was more than 100 µM.
The value for `Fc1ccc([Se]c2c(-c3ccccc3)ncc3ccccc23)cc1` was 20.3 µM.
The value for `COc1ccc([Se]c2c(-c3ccccc3)ncc3sccc23)cc1` was 33.6 µM; that for `COc1ccc([Se]c2c(-c3ccccc3)ncc3cc(Br)ccc23)cc1` was 94.8 µM.
For the compound `COc1ccc([Se]c2c(-c3ccccc3)ncc3cc(F)ccc23)cc1`, the IC50 was 39 µM.
The value for `COc1ccc([Se]c2c(-c3ccccc3)ncc3cc4c(cc23)OCO4)cc1` was more than 100 µM.
The value for `Fc1ccc(-c2ncc3ccccc3c2[Se]c2ccccc2)cc1` was more than 100 µM; that for `Clc1ccc([Se]c2c(-c3ccccc3)ncc3ccccc23)cc1` was 82 µM; that for `CC(C)(C)c1ccc(-c2ncc3ccccc3c2[Se]c2ccccc2)cc1` was 40.8 µM.
The value for `COc1ccc([Se]c2c(-c3ccc(Br)cc3)ncc3ccccc23)cc1` was more than 100 µM.
For the compound `Brc1c2ccccc2c(-c2ncc3ccccc3c2[Se]c2ccccc2)c2ccccc12`, the IC50 was more than 100 µM.
The value for `c1ccc([Se]c2c(-c3ccc(-c4cc(-c5ccc(-c6ncc7ccccc7c6[Se]c6ccccc6)cc5)cc(-c5ccc(-c6ncc7ccccc7c6[Se]c6ccccc6)cc5)c4)cc3)ncc3ccccc23)cc1` was more than 100 µM.
The value for `Fc1ccccc1[Se]c1c(-c2ccccc2)ncc2ccccc12` was more than 100 µM; that for `Brc1ccc([Se]c2c(-c3ccccc3)ncc3ccccc23)cc1` was more than 100 µM; that for `COc1ccc([Se]c2c(-c3ccccc3)ncc3cc(Cl)ccc23)cc1` was 93.3 µM.
The value for `CN(C)c1ccc([Se]c2c(-c3ccccc3)ncc3ccccc23)cc1` was more than 100 µM.
As for `c1ccc([Se]c2c(-c3ccccc3)ncc3cc4c(cc23)OCO4)cc1`, the IC50 was 34.2 µM.
The value for `COc1ccc([Se]c2c(-c3ccccc3)ncc3cc(C)ccc23)cc1` was 16.6 µM; that for `CCCCc1ncc2ccccc2c1[Se]c1ccc(OC)cc1` was more than 100 µM; that for `c1ccc([Se]c2c(-c3ccccc3)ncc3ccccc23)cc1` was 61.6 µM.
For the compound `N#Cc1ccccc1[Se]c1c(-c2ccccc2)ncc2ccccc12`, the IC50 is more than 100 µM.
The value for `Brc1ccc(-c2ncc3ccccc3c2[Se]c2ccccc2)cc1` was more than 100 µM; that for `FC(F)(F)c1ccccc1[Se]c1c(-c2ccccc2)ncc2ccccc12` was 68 µM; that for `Clc1ccc(-c2ncc3ccccc3c2[Se]c2ccccc2)cc1` was more than 100 µM.
The value for `Cc1ccc(-c2ncc3ccccc3c2[Se]c2ccccc2)cc1` was more than 100 µM; that for `COc1ccc(-c2ncc3ccccc3c2[Se]c2ccccc2)cc1` was more than 100 µM; that for `Brc1ccc2c([Se]c3ccccc3)c(-c3ccccc3)ncc2c1` was 86.2 µM.
The value for `Cc1ccc2c([Se]c3ccccc3)c(-c3ccccc3)ncc2c1` was more than 100 µM; that for `COc1ccc([Se]c2c(-c3ccsc3)ncc3ccccc23)cc1` was 44.5 µM; that for `C[Se]c1c(-c2ccccc2)ncc2ccccc12` was more than 100 µM.
Take `COc1ccc([Se]c2c(-c3ccc4ccccc4c3)ncc3ccccc23)cc1`: the IC50 is more than 100 µM.
The value for `Cc1ccc([Se]c2c(-c3ccccc3)ncc3ccccc23)cc1` was 52 µM.
The value for `c1ccc([Se]c2c(-c3ccccc3)ncc3cccnc23)cc1` was 42.3 µM; that for `c1ccc([Se]c2c(C3CC3)ncc3ccccc23)cc1` was more than 100 µM.
The value for `c1ccc([Se]c2c(-c3ccccc3)ncc3sccc23)cc1` was 65.6 µM; that for `COc1cccc([Se]c2c(-c3ccccc3)ncc3ccccc23)c1` was 56.5 µM; that for `Clc1cccc([Se]c2c(-c3ccccc3)ncc3ccccc23)c1` was 56.7 µM.
`c1ccc([Se]c2c(-c3c4ccccc4c(-c4ncc5ccccc5c4[Se]c4ccccc4)c4ccccc34)ncc3ccccc23)cc1`: the IC50 was more than 100 µM.
The value for `Cc1cccc([Se]c2c(-c3ccccc3)ncc3ccccc23)c1` was 38 µM; that for `c1ccc([Se]c2c(-c3ccc(-c4ncc5ccccc5c4[Se]c4ccccc4)cc3)ncc3ccccc23)cc1` was more than 100 µM; that for `COc1ccc([Se]c2c(-c3ccccc3)ncc3cc(OC)ccc23)cc1` was 8.58 µM.
The value for `COc1ccc([Se]c2c(-c3ccccc3)ncc3cc(C(F)(F)F)ccc23)cc1` was 42.6 µM; that for `CC(C)(C)c1ncc2ccccc2c1[Se]c1ccccc1` was more than 100 µM; that for `N#Cc1ccc([Se]c2c(-c3ccccc3)ncc3ccccc23)cc1` was more than 100 µM.
As to `c1ccc([Se]c2c(-c3cc4ccccc4c4ccccc34)ncc3ccccc23)cc1`, the IC50 was more than 100 µM.
The value for `c1ccc([Se]c2c(-c3ccc(-c4ccccc4)cc3)ncc3ccccc23)cc1` was more than 100 µM; that for `c1ccc([Se]c2c(-c3ccc4ccccc4c3)ncc3ccccc23)cc1` was 54.8 µM; that for `O=P1(N(CCCl)CCCl)NCCCO1` (centres undefined) [CYCLOPHOSPHAMIDE ANHYDROUS] was 114 µM.
The value for `COc1ccc([Se]c2cc(-c3ncc4ccccc4c3[Se]c3ccc(OC)cc3)cc([Se]c3ccc(OC)cc3)c2N)cc1` was more than 100 µM.
The value for `COc1ccc2c([Se]c3ccccc3)c(-c3ccccc3)ncc2c1` was 76.6 µM.

Source of the values: ChEMBL document CHEMBL6103645, “Modular Synthesis of Bioactive Selenoheterocycles for Efficient Cancer Therapy via Electrochemical Selenylation/Cyclization” (J Med Chem, 2025).
